Columns and labels:
E. faecalis ATCC 29212 = assay: MIC, NCCLS broth microdilution; type: cell-based, Enterococcus faecalis; details: C = E. faecalis ATCC 29212
In short: (§1)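 Compounds were serially diluted in broth and tested against each strain according to NCCLS guidelines, with MIC taken as the endpoint. C. albicans was assayed per the Manual of Clinical Microbiology.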

[1] = tested on: M. catarrhalis (ATCC 25238); assay: MIC, NCCLS broth microdilution; type: cell-based, Moraxella (now Branhamella) catarrhalis; details: H = M. catarrhalis (ATCC 25238)
In short: (§2)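 MIC values come from microtiter-plate broth microdilution run to NCCLS standards (M7-A4, M11-A4, M27-T). For C. albicans ATCC 38247, the antifungal procedure of the 1995 Manual of Clinical Microbiology was used instead.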

C. albicans ATCC 38247 = assay: MIC, antifungal assay; type: cell-based, Candida albicans; details: F = C. albicans ATCC 38247
In short: as §2

S. aureus ATCC 27660 = assay: MIC, NCCLS broth microdilution; type: cell-based, Staphylococcus aureus; details: B = S. aureus ATCC 27660 (MRSA)
In short: as §2

S. aureus ATCC 13709 = assay: MIC, NCCLS broth microdilution; type: cell-based, Staphylococcus aureus; details: A = S. aureus ATCC 13709 (MSSA)
In short: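 Minimal inhibitory concentration determined by NCCLS broth microdilution in microtiter plates per documents M7-A4, M11-A4 and M27-T. S. aureus ATCC 27660 is a methicillin-resistant strain. The antifungal test on C. albicans followed the method recommended in the Manual of Clinical Microbiology (1995).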

B. cereus ATCC 11778 = assay: MIC, NCCLS broth microdilution; type: cell-based, Bacillus cereus; details: D = B. cereus ATCC 11778
In short: as §2

S. pneumoniae ATCC 49619 = assay: MIC, NCCLS broth microdilution; type: cell-based, Streptococcus pneumoniae; details: E = S. pneumoniae ATCC 49619
In short: as §1

E. coli ATCC 25922 = assay: MIC, NCCLS broth microdilution; type: cell-based, Escherichia coli; details: G = E. coli ATCC 25922
In short: as §1

Compound | Minimum Inhibitory Concentration (MIC) (E. faecalis ATCC 29212) | Minimum Inhibitory Concentration (MIC) [1] | Minimum Inhibitory Concentration (MIC) (C. albicans ATCC 38247) | Minimum Inhibitory Concentration (MIC) (S. aureus ATCC 27660) | Minimum Inhibitory Concentration (MIC) (S. aureus ATCC 13709) | Minimum Inhibitory Concentration (MIC) (B. cereus ATCC 11778) | Minimum Inhibitory Concentration (MIC) (S. pneumoniae ATCC 49619) | Minimum Inhibitory Concentration (MIC) (E. coli ATCC 25922)
Cn1cc(NC(=O)c2cc3ccccc3cn2)cc1C(=O)Nc1ccc(C(=O)Nc2cn(C)c(C(=O)NCCNCCN3CCCC3)n2)cc1 [Compound A-36] | +++ (MIC ≦ 4 μg/mL) | ++ (4 < MIC < 12 μg/mL) | + (12 ≦ MIC ≦ 32 μg/mL) | +++ (MIC ≦ 4 μg/mL) | +++ (MIC ≦ 4 μg/mL) | +++ (MIC ≦ 4 μg/mL) | +++ (MIC ≦ 4 μg/mL) | >32 µg/mL
COCCN(C)CCNC(=O)c1nc(NC(=O)c2ccc(NC(=O)c3cc(NC(=O)c4cc5ccccc5cn4)cn3C)cc2)cn1C [Compound A-29] | +++ (MIC ≦ 4 μg/mL) | +++ (MIC ≦ 4 μg/mL) | + (12 ≦ MIC ≦ 32 μg/mL) | +++ (MIC ≦ 4 μg/mL) | +++ (MIC ≦ 4 μg/mL) | +++ (MIC ≦ 4 μg/mL) | +++ (MIC ≦ 4 μg/mL) | ++ (4 < MIC < 12 μg/mL)
CC(C)C(CO)NCCNC(=O)c1nc(NC(=O)c2ccc(NC(=O)c3cc(NC(=O)c4cc5ccccc5cn4)cn3C)cc2)cn1C (centres unmarked) [Compound A-46] | +++ (MIC ≦ 4 μg/mL) | ++ (4 < MIC < 12 μg/mL) | >32 µg/mL | +++ (MIC ≦ 4 μg/mL) | +++ (MIC ≦ 4 μg/mL) | +++ (MIC ≦ 4 μg/mL) | +++ (MIC ≦ 4 μg/mL) | >32 µg/mL
Cn1cc(NC(=O)c2cc3ccccc3cn2)cc1C(=O)Nc1ccc(C(=O)Nc2cn(C)c(C(=O)NCCN(CCO)CCO)n2)cc1 [Compound A-54] | +++ (MIC ≦ 4 μg/mL) | >32 µg/mL | >32 µg/mL | +++ (MIC ≦ 4 μg/mL) | +++ (MIC ≦ 4 μg/mL) | +++ (MIC ≦ 4 μg/mL) | +++ (MIC ≦ 4 μg/mL) | >32 µg/mL
Cn1cc(NC(=O)c2cc3ccccc3cn2)cc1C(=O)Nc1ccc(C(=O)Nc2cn(C)c(C(=O)NCCN3CCN(CCOC(=O)CNS(=O)(=O)O)CC3)n2)cc1 [Compound A-73] | +++ (MIC ≦ 4 μg/mL) | >32 µg/mL | >32 µg/mL | +++ (MIC ≦ 4 μg/mL) | +++ (MIC ≦ 4 μg/mL) | +++ (MIC ≦ 4 μg/mL) | +++ (MIC ≦ 4 μg/mL) | >32 µg/mL
Cn1cc(NC(=O)c2cccc(F)n2)cc1C(=O)Nc1ccc(C(=O)Nc2cn(C)c(C(=O)NCCN3CCC(O)CC3)n2)cc1 [Compound A-2] | +++ (MIC ≦ 4 μg/mL) | + (12 ≦ MIC ≦ 32 μg/mL) | >32 µg/mL | +++ (MIC ≦ 4 μg/mL) | +++ (MIC ≦ 4 μg/mL) | +++ (MIC ≦ 4 μg/mL) | +++ (MIC ≦ 4 μg/mL) | >32 µg/mL
CC(C)N1CCN(CCC(=O)OC2CCN(CCNC(=O)c3nc(NC(=O)c4ccc(NC(=O)c5cc(NC(=O)c6cc7ccccc7cn6)cn5C)cc4)cn3C)CC2)CC1 [Compound A-53] | +++ (MIC ≦ 4 μg/mL) | +++ (MIC ≦ 4 μg/mL) | >32 µg/mL | +++ (MIC ≦ 4 μg/mL) | +++ (MIC ≦ 4 μg/mL) | +++ (MIC ≦ 4 μg/mL) | +++ (MIC ≦ 4 μg/mL) | >32 µg/mL
